Measurements taken from ChEMBL document CHEMBL3085748, “Acetylcholinesterase inhibitors as Alzheimer therapy: from nerve toxins to neuroprotection” (Eur J Med Chem, 2013).

Columns and labels:
Acetylcholinesterase [1] = biological target: T1, Acetylcholinesterase (Electrophorus electricus, UniProt O42275); test: Inhibition of electric eel acetylcholinesterase using acetylcholine chloride as substrate measured every 1 min by chemiluminescent assay
Acetylcholinesterase [2] = biological target: T2, Acetylcholinesterase (Bos taurus, UniProt P23795); test: Inhibition of bovine erythrocyte acetylcholinesterase using acetylthiocholine iodide as substrate after 15 mins by Ellman's method
T2 sequence (P23795 whole entry): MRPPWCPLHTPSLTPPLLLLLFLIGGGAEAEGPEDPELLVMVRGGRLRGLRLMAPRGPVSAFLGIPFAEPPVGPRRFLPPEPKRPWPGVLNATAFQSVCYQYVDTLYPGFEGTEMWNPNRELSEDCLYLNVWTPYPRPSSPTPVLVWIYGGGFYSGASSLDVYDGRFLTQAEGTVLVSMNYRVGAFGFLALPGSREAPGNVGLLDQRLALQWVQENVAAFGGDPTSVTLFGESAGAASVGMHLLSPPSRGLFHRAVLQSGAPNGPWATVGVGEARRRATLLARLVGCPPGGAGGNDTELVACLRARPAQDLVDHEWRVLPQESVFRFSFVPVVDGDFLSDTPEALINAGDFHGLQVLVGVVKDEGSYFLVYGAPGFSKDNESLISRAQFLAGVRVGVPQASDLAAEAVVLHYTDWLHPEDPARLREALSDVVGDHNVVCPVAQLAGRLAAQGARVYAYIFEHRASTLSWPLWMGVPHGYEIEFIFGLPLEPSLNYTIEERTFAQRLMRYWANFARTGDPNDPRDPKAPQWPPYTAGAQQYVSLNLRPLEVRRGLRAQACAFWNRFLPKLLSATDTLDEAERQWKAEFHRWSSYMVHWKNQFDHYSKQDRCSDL

Acetylcholinesterase [3] = biological target: T3, Acetylcholinesterase (Homo sapiens, UniProt P22303); test: Inhibition of acetylcholinesterase (unknown origin) by Ellman's method
T3 sequence (P22303 whole entry): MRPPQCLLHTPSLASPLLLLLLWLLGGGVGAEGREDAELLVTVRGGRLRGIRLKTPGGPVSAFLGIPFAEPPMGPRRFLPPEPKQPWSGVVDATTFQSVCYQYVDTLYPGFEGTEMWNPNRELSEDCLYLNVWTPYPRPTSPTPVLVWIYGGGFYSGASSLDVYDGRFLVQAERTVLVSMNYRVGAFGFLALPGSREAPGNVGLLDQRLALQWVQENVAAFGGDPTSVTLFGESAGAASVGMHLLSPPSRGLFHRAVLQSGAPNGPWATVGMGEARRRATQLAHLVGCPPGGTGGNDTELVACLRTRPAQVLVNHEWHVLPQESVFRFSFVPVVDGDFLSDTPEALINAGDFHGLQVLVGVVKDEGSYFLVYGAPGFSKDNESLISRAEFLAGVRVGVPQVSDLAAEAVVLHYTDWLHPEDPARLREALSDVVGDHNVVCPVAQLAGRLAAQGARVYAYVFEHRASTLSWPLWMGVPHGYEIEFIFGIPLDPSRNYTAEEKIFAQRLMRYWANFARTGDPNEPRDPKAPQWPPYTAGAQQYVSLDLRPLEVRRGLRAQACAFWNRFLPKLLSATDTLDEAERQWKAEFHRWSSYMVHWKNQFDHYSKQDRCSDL

Acetylcholinesterase [4] = biological target: T4, Acetylcholinesterase (Rattus norvegicus, UniProt P37136); test: Inhibition of rat brain AChE
T4 sequence (P37136 whole entry): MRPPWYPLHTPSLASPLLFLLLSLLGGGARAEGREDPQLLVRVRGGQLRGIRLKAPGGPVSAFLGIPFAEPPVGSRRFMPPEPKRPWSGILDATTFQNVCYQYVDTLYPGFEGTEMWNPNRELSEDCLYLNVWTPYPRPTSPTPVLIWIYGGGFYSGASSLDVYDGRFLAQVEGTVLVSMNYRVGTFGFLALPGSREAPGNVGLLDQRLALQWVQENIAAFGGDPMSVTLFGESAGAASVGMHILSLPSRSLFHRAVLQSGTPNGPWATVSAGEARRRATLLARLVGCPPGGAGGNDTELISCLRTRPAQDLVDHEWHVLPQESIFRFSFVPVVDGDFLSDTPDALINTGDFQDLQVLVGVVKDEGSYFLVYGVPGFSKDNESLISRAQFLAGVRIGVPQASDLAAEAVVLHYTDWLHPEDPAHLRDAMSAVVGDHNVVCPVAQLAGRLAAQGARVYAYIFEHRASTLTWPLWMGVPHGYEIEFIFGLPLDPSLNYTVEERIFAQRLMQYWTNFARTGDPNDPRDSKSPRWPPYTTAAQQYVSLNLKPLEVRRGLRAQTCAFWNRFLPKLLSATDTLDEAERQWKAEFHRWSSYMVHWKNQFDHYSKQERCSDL

Cholinesterase = Cholinesterase (Equus caballus, UniProt P81908); test: Inhibition of equine serum BuChE after 15 mins by spectrophotometric analysis
Sequence of Cholinesterase (P81908 whole entry): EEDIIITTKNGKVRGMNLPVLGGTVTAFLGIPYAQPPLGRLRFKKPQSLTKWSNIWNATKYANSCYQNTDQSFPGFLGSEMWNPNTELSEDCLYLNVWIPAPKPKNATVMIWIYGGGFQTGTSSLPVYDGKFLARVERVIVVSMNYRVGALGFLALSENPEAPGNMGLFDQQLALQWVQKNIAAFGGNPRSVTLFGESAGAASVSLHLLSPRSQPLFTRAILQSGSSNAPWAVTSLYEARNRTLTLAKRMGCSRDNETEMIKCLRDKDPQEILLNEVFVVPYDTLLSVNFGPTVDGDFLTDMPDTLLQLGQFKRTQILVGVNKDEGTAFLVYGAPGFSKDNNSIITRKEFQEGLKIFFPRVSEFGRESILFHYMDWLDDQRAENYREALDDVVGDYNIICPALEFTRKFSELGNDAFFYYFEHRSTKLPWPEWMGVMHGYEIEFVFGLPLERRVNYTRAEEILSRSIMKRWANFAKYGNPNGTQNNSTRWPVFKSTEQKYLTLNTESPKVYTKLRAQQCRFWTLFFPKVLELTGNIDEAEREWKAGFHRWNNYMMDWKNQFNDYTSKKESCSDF

Acetylcholinesterase [5] = biological target: T1, Acetylcholinesterase; test: Inhibition of electric eel acetylcholinesterase using acetylthiocholine chloride as substrate preincubated for 15 mins followed by substrate addition measured every 1 min by spectrophotometric analysis
Acetylcholinesterase [6] = biological target: T3, Acetylcholinesterase; test: Inhibition of acetylcholinesterase (unknown origin)

T1 sequence (O42275 whole entry): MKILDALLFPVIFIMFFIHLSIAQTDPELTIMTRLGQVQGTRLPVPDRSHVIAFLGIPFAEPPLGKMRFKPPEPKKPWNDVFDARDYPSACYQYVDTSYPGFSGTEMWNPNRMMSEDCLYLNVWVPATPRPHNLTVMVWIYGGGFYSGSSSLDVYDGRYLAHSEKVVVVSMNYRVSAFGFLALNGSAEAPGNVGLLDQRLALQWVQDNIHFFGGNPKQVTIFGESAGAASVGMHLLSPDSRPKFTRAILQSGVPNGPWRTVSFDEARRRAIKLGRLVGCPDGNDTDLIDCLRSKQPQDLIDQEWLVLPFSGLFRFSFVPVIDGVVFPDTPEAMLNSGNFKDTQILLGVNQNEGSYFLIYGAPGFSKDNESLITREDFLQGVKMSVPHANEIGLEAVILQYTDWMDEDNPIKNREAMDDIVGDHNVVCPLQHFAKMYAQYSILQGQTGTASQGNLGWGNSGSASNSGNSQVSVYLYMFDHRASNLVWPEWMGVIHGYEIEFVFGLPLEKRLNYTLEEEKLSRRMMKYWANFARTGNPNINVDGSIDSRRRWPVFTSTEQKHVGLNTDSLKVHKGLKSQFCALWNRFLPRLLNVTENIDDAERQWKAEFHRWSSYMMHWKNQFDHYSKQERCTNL

For `O=C1CCN(Cc2ccccc2)C/C1=C\c1c[nH]c2ccccc12`, which IC50 (Acetylcholinesterase [1]) is on record?
The IC50 was 8 µM.

For `Cc1nn(-c2ccccc2)c2nc3nc4c(c(N)c3cc12)CCCC4`, which IC50 (Acetylcholinesterase [2]) is on record?
Its IC50 is 6.4 µM.

How did the IC50 (Acetylcholinesterase [3]) turn out when `CCn1c(=O)n(C)s/c1=N\CCC1CCN(Cc2ccccc2)CC1` was run?
Its IC50 is 0.14 µM.

`CC(=O)CCCCCCCCCCCC[C@H]1CC[C@@H](OC(C)=O)[C@@H](C)N1` was tested. Which IC50 (Acetylcholinesterase [4]) did it give?
Its IC50 is 7.32 µM.

Which IC50 (Acetylcholinesterase [4]) does the source give for `CC(=O)CCCCCCCCCCCC[C@H]1CC[C@@H](OC(=O)OC(C)(C)C)[C@@H](C)N1` here?
Its IC50 is 15.1 µM.

With `COc1cc2c3c(c1OC)/C1=C/C[C@H](O)C[C@@H](O)[C@H](O1)[C@@H]3N(C)CC2` as the compound, how does the IC50 (Cholinesterase) read?
The IC50 was 13.4 µM.

What about the IC50 (Acetylcholinesterase [5]) of the same compound?
Its IC50 is 0.72 µM.

For `CCOC(=O)C1=C(C)Oc2nc3c(c(N)c2C1c1ccc(OC)cc1)CCCC3` (centres undefined), which IC50 (Acetylcholinesterase [6]) is on record?
Its IC50 is 0.868 µM.

Which IC50 (Acetylcholinesterase [6]) does the source give for `CCOC(=O)C1=C(C)Oc2nc3c(c(N)c2C1c1ccc(C)cc1)CCCC3` (centres undefined) here?
Its IC50 is 0.182 µM.
